Measured values as given in patent publication US20210386791A1, “METHODS OF CELLULAR REPROGRAMMING” (TissueTech, Inc., priority 2018, published 2021).

Tested on: human corneal fibroblasts (HCF)
Assay: Reversal of HCF to keratocytes on immobilized HC-HA/PTX3 with or without SB431542 or AMD3100
Format: cell-based
Settings: day 1 up to 7 days
Experimental: A total of 86 human corneas from individuals aged 18-76 years and maintained at 4° C. in Optisol (Chiron Vision, Irvine, Calif.) for less than 7 days after death were obtained from the Florida Lions Eye Bank (Miami, Fla.) and handled according to the declaration of Helsinki. HCF were isolated and cultured. Briefly, the sheets of the epithelium and the endothelium were removed from corneas, the stroma sections were cut into cubes of approximately 1 mm3, incubated in 2 mg/ml collagenase for 16 h at 37° C., and then placed in a culture medium consisting of DMEM supplemented with 10% fetal bovine serum containing […]. The culture medium was refreshed twice a week. The cells cultured to passage 3 were used for all experiments. To reverse fibroblasts or myofibroblasts into keratocytes, fibroblasts or myofibroblasts were cultured on immobilized HC-HA/PTX3 in DMEM+10% FBS for 3 days using the samples from the cells on plastic and HA as the controls. Some of the cell cultures were extended to up to 7 days of culture to monitor the expression of α-SMA formation. Total RNAs were extracted using RNeasy Mini Kit (Qiagen) and reverse-transcribed using High Capacity Reverse Transcription Kit (Applied Biosystems). cDNA was amplified by real-time RT-PCR using specific primer-probe mixtures and DNA polymerase in Quant Studio 5 Real-time PCR System (Applied Biosystems). Real-time RT-PCR profile consisted of 10 min of initial activation at 95° C., followed by 40 cycles of 15 s denaturation at 95° C., and 1 min annealing and extension at 60° C. The genuine identity of each PCR product was confirmed by the size determination using 2% agarose gels followed by ethidium bromide staining together with PCR marker according to EC3 Imaging System (BioImaging System, Upland, Calif.). The samples of human corneal fibroblasts, myofibroblasts and corneal keratocytes were air-dried and fixed in 4% formaldehyde, pH 7.0, for 15 min at room temperature, rehydrated in PBS, incubated with 0.2% Triton X-100 for 15 min, and rinsed 3 times with PBS for 5 min each. […] After three washes with PBS, they were incubated with corresponding Alexa-Fluor-conjugated secondary IgG (all 1:100 dilution) for 60 min. The samples were then counterstained with Hoechst 33342 and analyzed in Zeiss LSM 700 confocal microscope (Thornhood, N.Y.). Corresponding mouse and rabbit sera were used as negative controls for primary monoclonal and polyclonal antibodies, respectively. Cell lysates were prepared in RIPA buffer and resolved on 4-15% (w/v) gradient acrylamide gels under denaturing and reducing conditions for Western blotting. The protein extracts were transferred to the nitrocellulose membrane, which was then blocked with 5% (w/v) fat-free milk in TBST [50 mM Tris-HCl, pH 7.5, 150 mM NaCl, 0.05% (v/v) Tween-20], followed by sequential incubation with the specific primary antibody against keratocan and its respective horseradish peroxidase (HRP)-conjugated secondary antibody using β-actin as the loading control. Immunoreactive proteins were detected with Western Lighting Chemiluminescence (PerkinElmer, Waltham, Mass.).

hyaluronic acid [HA] was tested, and the “aggregation of HCF” value was “formed some aggregates”.
